A value given as a limit tells only on which side of the number the result lay.

Experiment [1] addresses T1, GRK2 (Homo sapiens, UniProt P25098).
T1 construct: purchased SignalChem A14-10G
T1 sequence (P25098 1-689): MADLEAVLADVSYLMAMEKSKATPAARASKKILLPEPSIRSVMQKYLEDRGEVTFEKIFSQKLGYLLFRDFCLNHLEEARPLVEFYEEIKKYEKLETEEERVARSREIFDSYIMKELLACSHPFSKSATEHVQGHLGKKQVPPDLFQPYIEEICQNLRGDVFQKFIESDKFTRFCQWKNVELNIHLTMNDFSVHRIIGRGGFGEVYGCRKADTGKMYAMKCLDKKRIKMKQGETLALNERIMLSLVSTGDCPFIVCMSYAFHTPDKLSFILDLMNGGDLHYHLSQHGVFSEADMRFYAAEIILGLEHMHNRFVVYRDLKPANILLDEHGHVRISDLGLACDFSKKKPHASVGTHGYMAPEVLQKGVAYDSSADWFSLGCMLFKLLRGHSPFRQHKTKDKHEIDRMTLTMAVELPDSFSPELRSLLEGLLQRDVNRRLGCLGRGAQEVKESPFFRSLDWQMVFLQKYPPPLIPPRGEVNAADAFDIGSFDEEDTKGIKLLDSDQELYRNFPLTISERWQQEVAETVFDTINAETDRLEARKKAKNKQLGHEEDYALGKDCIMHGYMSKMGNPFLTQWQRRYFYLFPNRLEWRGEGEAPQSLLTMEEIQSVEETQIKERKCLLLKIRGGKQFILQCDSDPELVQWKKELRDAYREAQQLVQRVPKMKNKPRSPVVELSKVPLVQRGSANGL
Briefly: GRK2 Inhibition Assay (TR-FRET, Example 7). The experiment is classed as biochemical. A digest of the protocol: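 GRK2 at 1 nM preincubated 30 min with compound, then reacted 90 min at room temperature with 7 μM ATP and 50 nM ULight-TopoIIα in HEPES/MgCl2/DTT buffer. Phosphorylation detected by TR-FRET after Eu anti-TopoIIα and EDTA addition, 60 min.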
Background: In TR-FRET formats the signal depends on donor and acceptor labels being close together.

For experiment [2], the system named is PAXF1657 control empty vector cell line. In words: 7-day proliferation assay, PAXF1657 control empty vector cell line (Example 9). Format: cell-based. Conditions: 168 h; Cell Line: PAXF1657 empty vector (EV) cell line; 7-day; read-out: C: 7-day proliferation assay: IC50 GeoMean. An outline of the steps: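 Viability by CellTiter-Glo after 7 days at 37° C., with compound-containing media replaced on day 3. Cells (500/well, RPMI1640 + 10% FBS) were PAXF1657 pairs: GRK2 overexpression vs empty vector, or CRISPR GRK2 knockout vs non-targeting clones; doses 30 μM-0.0002 μM final, 10 points, 0.3% DMSO.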

Experiment [3] concerns the target T1, GRK2. Briefly: ADPGlo GRK2 Inhibition Assay (Example 8). The experiment is classed as biochemical. An outline of the steps:
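GRK2 (15 nM 2× enzyme solution) was preincubated 15 min with compound, then reacted 180 min at room temperature with 2× mix of 20 μM ATP plus GRKtide in HEPES pH 7.5, MgCl2, Tween-20, DTT. ADP was detected by ADP-Glo luminescence. Percent inhibition was normalised to enzyme and no-enzyme controls, with dose-response curves from threefold dilutions starting at 100 μM.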
(In general: ADP-Glo first removes unused ATP, then detects ADP through luciferase.)

[4] abbreviates: Enzyme Assay B, TR-FRET (Example 7), read-out: B: Enzymatic GRK2: IC50 (nM) (Example 7).
Setting [5] is: Enzyme Assay A, ADPGlo (Example 8), read-out: A: Enzymatic GRK2: IC50 (nM) (Example 8).
Setting [6] is: TR-FRET GRK2 enzyme assay, read-out: B: Enzymatic GRK2: IC50 (nM) (Example 7).

Regarding `CCCn1c(CNc2cccc(C(=O)NCc3ccccc3C(F)(F)F)n2)nnc1-c1ccncn1`, the figures for the IC50 in experiment [1] (setting [4]) and in experiment [2] were 200 nM and > 10 µM, respectively.
With `CCc1cnccc1CNC(=O)c1cccc(NCc2nnc(-c3ccncn3)n2CCCNC)c1`, the IC50 in experiment [1] (setting [4]) was 94 nM; in experiment [2], > 30 µM.
In the same order, the values of `Cn1c(CNc2cc(C(=O)NCc3cnc4ccccn34)ccn2)nnc1-c1ccncn1` are 7.9 nM and 2.75 µM.
The like results for `Cc1cccc2ncc(CNC(=O)c3ccnc(NCc4nnc(-c5ccncn5)n4C)c3)n12` were, in that order, 24 nM and > 30 µM.
In the same order, the values of `Cn1c(CNc2cc(C(=O)NCc3cccnc3C(F)(F)F)ccn2)nnc1-c1ccncn1` are 11 nM and > 30 µM.
As for `Cc1cccc([C@H](CO)NC(=O)c2ccnc(NCc3nnc(-c4ccncn4)n3C)c2)c1`, the IC50 was 16 nM in experiment [1] (setting [4]) and > 30 µM in experiment [2].
The like results for `Cc1cccc([C@@H](CO)NC(=O)c2ccnc(NCc3nnc(-c4ccncn4)n3C)c2)c1` were, in that order, 96 nM and > 30 µM.
In the same order, the values of `Cn1c(CNc2cc(C(=O)N[C@@H]3COc4ccccc43)ccn2)nnc1-c1ccncn1` are 26 nM and 1.8 µM.
In the same order, the values of `Cn1c(CNc2cc(C(=O)N[C@H]3CCOc4c(Cl)cccc43)ccn2)nnc1-c1ccncn1` are 63 nM and > 30 µM.
In the case of `Cn1c(CNc2cc(C(=O)N[C@@H]3CCOc4c(Cl)cccc43)ccn2)nnc1-c1ccncn1`, the IC50 stood at 20 nM in experiment [1] (setting [4]) and 2.07 µM in experiment [2].
Consider `C[C@@H](NC(=O)c1ccnc(NCc2nnc(-c3ccncn3)n2C)c1)c1ncccc1Cl`, for which the results for the IC50 in experiment [1] (setting [4]) and in experiment [2] were 55 nM and > 30 µM, respectively.
Turning to `C[C@H](NC(=O)c1ccnc(NCc2nnc(-c3ccncn3)n2C)c1)c1ncccc1Cl`, the IC50 was 65 nM in experiment [1] (setting [4]) and > 30 µM in experiment [2].
For `CCc1cnccc1CNC(=O)c1cccc(NCc2nnc(-c3ccncn3)n2CCCOC)c1`, the IC50 was 23 nM in experiment [1] (setting [4]) and > 30 µM in experiment [2].
Consider `O=C(NCc1cccc2c1OCC2)c1cccc(NCc2nnc(-c3ccncn3)n2CCO)c1`, for which the IC50 is 1.7 nM in experiment [1] (setting [4]) and > 30 µM in experiment [2].
In the same order, the values of `Cc1cccnc1CNC(=O)c1cccc(NCc2nnc(-c3ccncn3)n2CCO)c1` are 2.5 nM and 1.16 µM.
The like results for `O=C(NCc1ccncc1Cl)c1cccc(NCc2nnc(-c3ccncn3)n2CCO)c1` were, in that order, < 2.9 nM and > 2.97 µM.
As for `O=C(NCc1cnc2ccccn12)c1cccc(NCc2nnc(-c3ccncn3)n2CCO)c1`, the IC50 in experiment [1] (setting [4]) is < 0.51 nM; in experiment [2], 0.58 µM.
In the same order, the values of `Cc1cccc2ncc(CNC(=O)c3cccc(NCc4nnc(-c5ccncn5)n4CCO)c3)n12` are 1 nM and 3.08 µM.
Turning to `O=C(NCc1cccnc1C(F)(F)F)c1cccc(NCc2nnc(-c3ccncn3)n2CCO)c1`, the IC50 is 0.98 nM in experiment [1] (setting [4]) and > 30 µM in experiment [2].
In the case of `Cc1cc2c(cc1CNC(=O)c1cccc(NCc3nnc(-c4ccncn4)n3CCO)c1)OCCO2`, the results for the IC50 in experiment [1] (setting [4]) and in experiment [2] were 1.4 nM and > 30 µM, respectively.
In the same order, the values of `O=C(N[C@@H]1CCOc2c(Cl)cccc21)c1cccc(NCc2nnc(-c3ccncn3)n2CCO)c1` are 4.6 nM and 0.123 µM.
Take `O=C(N[C@H]1CCOc2c(Cl)cccc21)c1cccc(NCc2nnc(-c3ccncn3)n2CCO)c1`: the values for the IC50 in experiment [1] (setting [4]) and in experiment [2] were 1.5 nM and 0.163 µM, respectively.
For the compound `Cc1cccc([C@@H](CO)NC(=O)c2cccc(NCc3nnc(-c4ccncn4)n3CCO)c2)c1`, the IC50 turned out to be 1.1 nM in experiment [1] (setting [4]) and 1.51 µM in experiment [2].
The like results for `O=C(N[C@H]1COc2ccccc21)c1cccc(NCc2nnc(-c3ccncn3)n2CCO)c1` were, in that order, < 0.51 nM and 0.107 µM.
Take `C[C@@H](NC(=O)c1cccc(NCc2nnc(-c3ccncn3)n2CCO)c1)c1ncccc1Cl`: the IC50 is < 0.51 nM in experiment [1] (setting [4]) and 0.803 µM in experiment [2].
The like results for `COCCCn1c(CNc2cccc(C(=O)NCc3cccnc3C(F)(F)F)c2)nnc1-c1ccncn1` were, in that order, 15 nM and 1.2 µM.
The like results for `COCCOc1cccc(CNC(=O)c2cccc(NCc3nnc(-c4ccncn4)n3C)c2)c1` were, in that order, 39 nM and 0.779 µM.
For the compound `C#Cc1cccc(OS(=O)(=O)F)c1CNC(=O)c1cccc(NCc2nnc(-c3ccncc3)[nH]2)c1`, the IC50 in experiment [3] is 8.94 nM; in experiment [1], 4.2 nM; in experiment [2], 1.55 µM.
On to `C#Cc1ccc(OS(=O)(=O)F)c(CNC(=O)c2cccc(NCc3nnc(-c4ccncc4)[nH]3)c2)c1`, for which the IC50 in experiment [1] (setting [4]) is 13 nM; in experiment [2], > 7.5 µM.
The like results for `O=C(NCc1cccnc1C(F)(F)F)c1cccc(NCc2nnc(-c3ccncn3)n2CCCN2CCC[C@H]2CO)c1` were, in that order, 1000 nM and > 30 µM.
The like results for `Cn1c(CNc2cccc(C(=O)N[C@@H]3CCOc4c(Br)cccc43)c2)nnc1-c1ccncn1` were, in that order, 13 nM and 1.63 µM.
The like results for `Cn1c(CNc2cccc(C(=O)N[C@H]3CCOc4c(Br)cccc43)c2)nnc1-c1ccncn1` were, in that order, 3.6 nM and > 30 µM.
Regarding `Cc1ccc2c(c1)[C@H](NC(=O)c1cccc(NCc3nnc(-c4ccncn4)n3C)c1)CCO2`, the IC50 turned out to be 4.6 nM in experiment [1] (setting [4]) and 0.196 µM in experiment [2].
Take `Cc1ccc2c(c1)[C@@H](NC(=O)c1cccc(NCc3nnc(-c4ccncn4)n3C)c1)CCO2`: the IC50 in experiment [1] (setting [4]) is 210 nM; in experiment [2], > 30 µM.
In the same order, the values of `Cn1c(CNc2cccc(C(=O)N[C@@H]3CCOc4cc(Br)ccc43)c2)nnc1-c1ccncn1` are 7 nM and > 30 µM.
On to `Cn1c(CNc2cccc(C(=O)N[C@H]3CCOc4cc(Br)ccc43)c2)nnc1-c1ccncn1`, for which the figures for the IC50 in experiment [1] (setting [4]) and in experiment [2] were 11 nM and > 30 µM, respectively.
For the compound `Cn1c(CNc2cccc(C(=O)N[C@@H]3CCOc4cc(Cl)ccc43)c2)nnc1-c1ccncn1`, the IC50 in experiment [1] (setting [4]) was 8.4 nM; in experiment [2], 0.24 µM.
For `Cn1c(CNc2cccc(C(=O)N[C@@H]3CCOc4cccnc43)c2)nnc1-c1ccncn1`, the results for the IC50 in experiment [3] (setting [5]), in experiment [1] (setting [4]) and in experiment [2] were 1.3 nM, 7 nM and 0.192 µM, respectively.
The like results for `Cn1c(CNc2cccc(C(=O)N[C@H]3CCOc4cccnc43)c2)nnc1-c1ccncn1` were, in that order, 144 nM, 990 nM and > 10.1 µM.
Take `Cn1c(CNc2cccc(C(=O)N[C@H](C#N)c3ccc(F)cc3F)c2)nnc1-c1ccncn1`: the values for the IC50 in experiment [1] (setting [6]) and in experiment [2] were 4.9 nM and 0.122 µM, respectively.
The like results for `Cn1c(CNc2cccc(C(=O)N[C@H](C#N)c3ccccc3C(F)(F)F)c2)nnc1-c1ccncn1` were, in that order, 3.5 nM and 0.0544 µM.
In the same order, the values of `Cn1c(CNc2cccc(C(=O)N[C@@H](C#N)c3ccccc3F)c2)nnc1-c1ccncn1` are 5.5 nM and 0.0593 µM.
In the same order, the values of `Cn1c(CNc2cccc(C(=O)N[C@H](C#N)c3ccccc3F)c2)nnc1-c1ccncn1` are 6.8 nM and 0.0826 µM.
On to `[2H]C([2H])(Nc1cccc(C(=O)N[C@H]2CCOc3ccccc32)c1)c1nnc(-c2ccccn2)n1C`, for which the IC50 was 8.3 nM in experiment [1] (setting [6]) and 2.65 µM in experiment [2].
Take `CCc1cnccc1CNC(=O)c1cccc(NCc2nnc(-c3ccncn3)n2[C@H]2CCC[C@H](NC)C2)c1`: the IC50 in experiment [3] (ADPGlo GRK2 enzyme assay, read-out: A: Enzymatic GRK2: IC50 (nM) (Example 8)) was found to be 529 nM; in experiment [1] (setting [6]), 810 nM.
`COc1ncccc1CNC(=O)c1cccc(NCc2nnc(-c3ccncc3)[nH]2)c1` [compound 9]: the IC50 came to 12 nM in experiment [3] (7.5 nM GRK2, 10 μM ATP, ADP-Glo, read-out: GRK2 IC50 (nM) (Example 8)) and 5.8 nM in experiment [1] (1 nM GRK2, 7 μM ATP, TR-FRET, read-out: GRK2 IC50 (nM) (Example 7)).
